Reference: patent US10385055B2, “Tricyclic gyrase inhibitors” (Merck Sharp & Dohme Corp., priority 2013, dated 2019)
Values after ≈ are worked out from the molar mass of the structure shown. Values joined by “and” are separate entries in the source; they are usually repeats but may differ in a detail not shown here. Equal values may be shown once.

Tests used:
K. pneumoniae = test: Anti-bacterial efficacy (MIC), K. pneumoniae; assay type: cell-based; settings: for MIC Kpn: Table 2; for MIC: Klebsiella pneumoniae, Table 3
P. aeruginosa = test: Anti-bacterial efficacy (MIC), P. aeruginosa; assay type: cell-based; settings: for MIC Pa: Table 2; for MIC: Pseudomonas aeruginosa, Table 3
S. aureus = test: Anti-bacterial efficacy (MIC), S. aureus; assay type: cell-based; settings: for MIC Sa: Table 2; for MIC: Staphylococcus aureus, Table 3
hERG = molecular target: T1, hERG (Homo sapiens, UniProt Q12809); test: hERG inhibition, Cerep automated patch-clamp assay in Chinese Hamster Ovary K1 cells; assay type: cell-based; settings: CHO K1 cells, tail current, read-out: hREG IC50
T1 construct: host or cells: Chinese Hamster Ovary K1 cells
T1 sequence (Q12809 whole entry): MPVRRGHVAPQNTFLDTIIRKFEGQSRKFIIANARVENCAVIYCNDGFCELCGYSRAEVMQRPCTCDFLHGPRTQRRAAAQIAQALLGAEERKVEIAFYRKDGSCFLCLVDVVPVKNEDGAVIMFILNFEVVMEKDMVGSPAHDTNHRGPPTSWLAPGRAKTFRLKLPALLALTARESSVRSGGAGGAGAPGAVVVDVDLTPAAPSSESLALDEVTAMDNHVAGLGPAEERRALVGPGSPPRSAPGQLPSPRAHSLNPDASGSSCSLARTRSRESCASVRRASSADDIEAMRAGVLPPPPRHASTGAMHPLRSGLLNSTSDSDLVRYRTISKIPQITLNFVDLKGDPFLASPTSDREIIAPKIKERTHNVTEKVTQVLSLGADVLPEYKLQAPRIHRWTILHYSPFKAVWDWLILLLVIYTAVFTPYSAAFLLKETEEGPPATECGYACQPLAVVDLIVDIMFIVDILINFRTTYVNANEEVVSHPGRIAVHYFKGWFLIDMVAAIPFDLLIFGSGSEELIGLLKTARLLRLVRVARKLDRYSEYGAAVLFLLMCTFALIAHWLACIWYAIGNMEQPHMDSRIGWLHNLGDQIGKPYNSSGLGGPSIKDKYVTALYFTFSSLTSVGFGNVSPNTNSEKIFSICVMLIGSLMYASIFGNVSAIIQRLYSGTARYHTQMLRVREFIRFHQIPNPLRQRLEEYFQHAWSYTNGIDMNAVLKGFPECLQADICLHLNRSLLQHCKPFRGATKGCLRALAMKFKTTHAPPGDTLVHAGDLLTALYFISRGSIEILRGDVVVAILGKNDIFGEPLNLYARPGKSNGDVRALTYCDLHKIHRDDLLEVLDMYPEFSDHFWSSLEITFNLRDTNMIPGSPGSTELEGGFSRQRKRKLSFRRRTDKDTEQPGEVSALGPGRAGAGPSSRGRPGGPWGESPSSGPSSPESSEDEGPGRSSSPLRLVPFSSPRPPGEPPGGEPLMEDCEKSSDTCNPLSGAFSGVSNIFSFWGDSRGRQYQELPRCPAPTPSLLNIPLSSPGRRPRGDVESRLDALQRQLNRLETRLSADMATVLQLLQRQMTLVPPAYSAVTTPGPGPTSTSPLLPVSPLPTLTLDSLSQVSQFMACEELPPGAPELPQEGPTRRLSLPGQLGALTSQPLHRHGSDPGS
Method: A Cerep automated patch-clamp assay using Chinese Hamster Ovary K1 cells was used to measure hERG IC50 values. The degree of inhibition (%) was obtained by measuring the tail current amplitude, which is induced by a one second test pulse to −40 mV after a two second pulse to +20 mV, before and after drug incubation (the difference in current was normalized to control and multiplied by 100 to obtain the percent inhibition).
Concentration (log) response curves were fitted to a logistic equation (three parameters assuming complete block of the current at very high test compound concentrations) to generate estimates of the 50% inhibitory convcentration (IC50). The concentration-response relationship of each compound was constructed from the percentage reductions of current amplitude by sequential concentrations. The MIC and hERG IC50 values are provided in Table 2 below for the compounds tested.

A. baumannii = test: Anti-bacterial efficacy (MIC), A. baumannii; assay type: cell-based; settings: for MIC Ab: Table 2; for MIC: Acinetobacter baumannii, Table 3
E. coli = test: Anti-bacterial efficacy (MIC), E. coli; assay type: cell-based; settings: for MIC Ec: Table 2; for MIC: Escherichia coli, Table 3
[1] = In vivo mouse PK, oral bioavailability; settings: plasma, AUC oral / AUC intravenous, read-out: Mouse % F
Method: Typical protocol is a single dose intravenous and oral (gavage) administration with blood collection from each animal by cardiac puncture at selected (6 to 8) time points (n=3 mice per time point) into a tube containing an appropriate anticoagulant. The blood is centrifuged and the resulting plasma removed for subsequent analysis. After proper sample preparation, the plasma concentrations of a test compound are determined by LC-MS/MS and the pharmacokinctics (namely, area-under-curve or AUC) of the concentration-time profile from oral administration is compared with the corresponding pharmacokinetics from intravenous administration. […] In addition, Caco values are shown.

Caco-2 cell monolayer = Caco-2 cell monolayer permeability; assay type: in vitro ADME, human; settings: Caco-2 monolayer permeability
From the text: Oral bioavailability can be assessed by various methods such as measuring the Caco-2 cell monolayer permeability, and measuring pharmacokinetic properties by calculating the ratio of the AUC from oral administration to the AUC from intravenous administration. Both methods are used to assess compounds here as illustrated in Examples 8-9. In some aspects, compounds herein show the highest membrane (Caco-2 cell monolayer) permeability among all the compounds tested. The Caco-2 cell line is a continuous cell of heterogeneous human epithelial colorectal adenocarcinoma cells that when cultured under specific conditions the cells become differentiated and polarized such that their phenotype, morphologically and functionally, resembles the enterocytes lining the small intestine. Thus, the Caco-2 monolayer is widely used across the pharmaceutical industry as an in vitro model of the human small intestinal mucosa to predict the absorption of orally-administered drugs.
Caco-2 human colon carcinoma cell line (Caco-2) was used as a model system for intestinal epithelial permeability. There is similarity in uptake and barrier properties between this cell system and the small intestinal epithelial layer. See., Hidalgo I J, et al., Gastroenterology. 1989 March; 96(3):736-49. Characterization of the human colon carcinoma cell line (Caco-2) as a model system for intestinal epithelial permeability.

Dog oral bioavailability = settings: in vivo, read-out: Dog % F

Structure (SMILES) | MIC Kpn (K. pneumoniae) | MIC Pa (P. aeruginosa) | MIC Sa (S. aureus) | IC50 (hERG) | MIC Ab (A. baumannii) | MIC Ec (E. coli) | MIC (K. pneumoniae) | MIC (P. aeruginosa) | MIC (S. aureus) | bioavailability [1] | MIC (A. baumannii) | Caco (Caco-2 cell monolayer) | MIC (E. coli) | bioavailability (Dog oral bioavailability)
CNc1cc(F)cc2c1[nH]c1nc(Oc3cnc(C)nc3)nc(N3CC4(CCC4N)C3)c12 (stereo not shown) | 2 µg/mL (≈ 4.6 µM) | 1 µg/mL (≈ 2.3 µM) | ≤0.016 µg/mL | 16 µM | 0.5 µg/mL (≈ 1.15 µM) | 0.25 µg/mL (≈ 0.575 µM) |  |  |  |  |  |  |  | 
CNc1cc(F)cc2c1[nH]c1nc(Oc3cnc(C)nc3)nc(N3CC4(CCC4O)C3)c12 (stereo not shown) | 4 µg/mL (≈ 9.19 µM) | >16 µg/mL | ≤0.016 µg/mL | 100 µM | 4 µg/mL (≈ 9.19 µM) | 1 µg/mL (≈ 2.3 µM) |  |  |  |  |  |  |  | 
CNc1cc(F)cc2c1[nH]c1nc(Oc3cnc(C)nc3)nc(N3CC4CC3CC4N)c12 (stereo not shown) | 2 µg/mL (≈ 4.6 µM) | 1 µg/mL (≈ 2.3 µM) | ≤0.016 µg/mL | 4 µM | 0.5 µg/mL (≈ 1.15 µM) | 0.13 µg/mL (≈ 0.299 µM) |  |  |  |  |  |  |  | 
CNc1cc(F)cc2c1[nH]c1nc(Oc3cnc(C)nc3)nc(N3CC4CC3CC4O)c12 (stereo not shown) | 8 µg/mL (≈ 18.4 µM) | >16 µg/mL | ≤0.016 µg/mL | 71 µM | 4 µg/mL (≈ 9.19 µM) | 1 µg/mL (≈ 2.3 µM) |  |  |  |  |  |  |  | 
CNc1cc(F)cc2c1[nH]c1nc(Oc3cnc(C)nc3)nc(N3CC4CC(N)C4C3)c12 (stereo not shown) | 2 µg/mL (≈ 4.6 µM) | 1 µg/mL (≈ 2.3 µM) | ≤0.016 µg/mL | 1 µM | 0.25 µg/mL (≈ 0.575 µM) | 0.25 µg/mL (≈ 0.575 µM) |  |  |  |  |  |  |  | 
CNc1cc(F)cc2c1[nH]c1nc(Oc3cnc(C)nc3)nc(N3CC4CC(O)C4C3)c12 (stereo not shown) | 1 µg/mL (≈ 2.3 µM) | 16 µg/mL (≈ 36.7 µM) | ≤0.016 µg/mL | 20 µM | 0.5 µg/mL (≈ 1.15 µM) | 0.13 µg/mL (≈ 0.299 µM) |  |  |  |  |  |  |  | 
CNc1cc(F)cc2c1[nH]c1nc(Oc3cnc(C)nc3)nc(N3CC4C(N)C4C3)c12 (stereo not shown) | 2 µg/mL (≈ 4.76 µM) | 4 µg/mL (≈ 9.51 µM) | ≤0.016 µg/mL | 9.5 µM | 0.25 µg/mL (≈ 0.595 µM) | 0.13 µg/mL (≈ 0.309 µM) |  |  |  |  |  |  |  | 
CNc1cc(F)cc2c1[nH]c1nc(Oc3cnc(C)nc3)nc(N3CC4C(O)C4C3)c12 (stereo not shown) | 1 µg/mL (≈ 2.37 µM) | >16 µg/mL | ≤0.016 µg/mL | 41 µM | 0.5 µg/mL (≈ 1.19 µM) | 0.25 µg/mL (≈ 0.593 µM) |  |  |  |  |  |  |  | 
CNc1cc(F)c(F)c2c1[nH]c1nc(Oc3cnc([C@H](C)O)nc3)nc(N3C[C@H]4CC3C[C@H]4N)c12 [1.1] |  |  |  |  |  |  | 1 µg/mL (≈ 2.07 µM) | 2 µg/mL (≈ 4.15 µM) | ≤ 0.016 µg/mL | < 2% | 4 µg/mL (≈ 8.29 µM) | <0.1 10^−8 cm/s | 0.25 µg/mL (≈ 0.518 µM) | 
CNc1cc(F)c(F)c2c1[nH]c1nc(Oc3cnc([C@H](C)O)nc3)nc(N3CC4(CCC4N)C3)c12 (stereo partly shown) [1.2] |  |  |  |  |  |  | 1 µg/mL (≈ 2.07 µM) | 1 µg/mL (≈ 2.07 µM) | ≤ 0.016 µg/mL | < 2% | 2 µg/mL (≈ 4.15 µM) |  | 0.13 µg/mL (≈ 0.269 µM) | 
CNc1cc(F)cc2c1[nH]c1nc(Oc3cnc(C)nc3)nc(N3C[C@H]4C[C@@H](O)[C@H]4C3)c12 [1.3] |  |  |  |  |  |  | 0.5 µg/mL (≈ 1.15 µM) | 16 µg/mL (≈ 36.7 µM) | ≤ 0.016 µg/mL | 25% | 1 µg/mL (≈ 2.3 µM) | 5.5 10^−8 cm/s and 6.3 10^−8 cm/s | 0.13 µg/mL (≈ 0.299 µM) | 50%
CNc1cc(F)cc2c1[nH]c1nc(Oc3cnc(C)nc3)nc(N3C[C@@H]4[C@@H](O)[C@@H]4C3)c12 [1.4] |  |  |  |  |  |  | 1 µg/mL (≈ 2.37 µM) | > 16 µg/mL | ≤ 0.016 µg/mL | 15% | 2 µg/mL (≈ 4.75 µM) | 7.5 10^−8 cm/s | 0.5 µg/mL (≈ 1.19 µM) | 
